Assay results: the supplement of paper PMC10307832

Columns and labels:
Assay in all cases: relative viability (nuclei count vs DMSO), 5 days (fraction); higher = more cells survive
[1] = compound: C[C@@H](N)c1ccc(C(=O)Nc2ccnc3[nH]ccc23)cc1
Outline: (§1)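 For viability, nuclei in each treated well were divided by nuclei in vehicle wells and the median across plates was taken. Lung cancer cell lines in 1536-well plates were pinned with five library-drug doses (not always all listed) spaced by √10, cultured 5 days without medium change, and imaged at 4× after Hoechst staining, with plates passing only at control CV below 25% and at least one doubling.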

[2] = compound: C1CNCCC1C2=CC(=NN2)C3=CC=NC=C3
Outline: as §1

Tanzisertib = compound: O[C@H]1CC[C@H](Nc2ncc3nc(Nc4c(F)cc(F)cc4F)n([C@H]4CCOC4)c3n2)CC1 [Tanzisertib]
Outline: as §1

[3] = compound: C1CNCCC1C2=CC(=NN2)C3=CC=NC=C3 + COc1cc2c(Oc3ccc(NC(=O)C4(C(=O)Nc5ccc(F)cc5)CC4)cc3F)ccnc2cc1OCCCN1CCOCC1 [Foretinib] (partner 0.25 µM)
Outline: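 Five library-drug doses in √10 steps were combined with a fixed anchor-drug dose, or a single drug was given alone, by pin tool to lung cancer cell lines in 1536-well plates the day after seeding. Nuclei were stained and counted after 5 days. Relative viability is the nuclei count in treated wells over that in vehicle wells, taken as the median of duplicate plates.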

| Cell Line | relative viability ([1]; 0.04 µM) | relative viability ([1]; 0.1265 µM) | relative viability ([1]; 0.4 µM) | relative viability ([1]; 1.265 µM) | relative viability ([1]; 4 µM) | relative viability ([2]; 0.08 µM) | relative viability ([2]; 0.8 µM) | relative viability ([2]; 2.53 µM) | relative viability ([2]; 8 µM) | relative viability (Tanzisertib; 0.08 µM) | relative viability (Tanzisertib; 0.253 µM) | relative viability (Tanzisertib; 0.8 µM) | relative viability (Tanzisertib; 2.53 µM) | relative viability (Tanzisertib; 8 µM) | relative viability ([3]; first compound 0.08 µM) | relative viability ([3]; first compound 0.8 µM) | relative viability ([3]; first compound 2.53 µM) | relative viability ([3]; first compound 8 µM) |
| --- | --- | --- | --- | --- | --- | --- | --- | --- | --- | --- | --- | --- | --- | --- | --- | --- | --- | --- |
| ChaGo-K-1 | 1.08 | 0.999 | 1.02 | 0.804 | 0.888 | 0.93 | 1.05 | 0.952 | 0.91 | 1.05 | 0.999 | 0.984 | 0.992 | 0.986 | 0.997 | 1.01 | 0.886 | 0.923 |
| SK-MES-1 | 0.987 | 0.969 | 1 | 0.878 | 0.82 | 1.03 | 0.925 | 1.05 | 0.999 | 1.08 | 0.984 | 0.975 | 0.992 | 0.808 | 0.85 | 0.855 | 1.05 | 1 |
| NCI-H1755 | 0.911 | 0.987 | 0.945 | 0.937 | 0.793 | 1.01 | 0.915 | 1.03 | 0.948 | 1.02 | 0.958 | 1 | 0.97 | 0.961 | 0.968 |  | 0.908 | 0.897 |
| NCI-H2023 | 1.04 | 1.06 | 1.12 | 0.942 | 1.02 | 0.821 | 1.1 | 1.08 | 1 | 1.1 | 0.958 | 1 | 0.907 | 0.899 | 0.789 | 0.803 | 1.16 | 1.11 |
| LC-2-ad | 0.916 | 0.916 | 1.02 | 0.719 | 0.838 | 0.978 | 1.09 | 1 | 0.964 | 1.1 | 1.03 | 1.09 | 1.03 | 0.506 |  | 0.956 | 0.997 | 0.948 |
| NCI-H1666 | 1.13 | 1.06 | 1.23 | 1.23 | 1.26 | 0.927 | 1.04 | 1.11 | 0.981 | 0.966 | 1.04 | 1.03 | 1.07 | 1.09 | 0.887 | 0.987 | 0.963 | 1.03 |
| EBC-1 | 1.06 | 1.01 | 1.08 | 1.01 | 0.991 | 1.09 | 0.981 | 1.06 | 1.02 | 1.16 | 0.991 | 0.971 | 0.871 | 0.825 | 0.116 | 0.111 | 0.0919 | 0.135 |
| 201T | 1.01 | 0.971 | 1.01 | 0.976 | 1.12 | 0.97 | 0.993 | 0.983 | 0.938 | 1 | 0.969 | 0.997 | 0.933 | 0.898 | 1.08 | 1.21 | 1.3 | 1.03 |
| NCI-H2009 | 0.978 | 1.02 | 0.958 | 0.922 | 0.813 | 1.03 | 1.07 | 1.07 | 1 | 1.08 | 1.04 | 0.999 | 1.12 | 1.06 | 1.2 | 1.19 | 1.17 | 1.19 |
| NCI-H1395 | 0.889 | 0.924 | 0.949 |  | 0.828 | 0.861 | 0.733 | 1.07 | 0.882 | 0.986 | 1 | 0.96 | 1.03 | 0.715 | 0.982 | 0.821 | 1.15 | 1.04 |
| NCI-H2228 | 1.17 | 1.05 | 1.13 | 1.03 | 0.814 | 0.921 | 1.17 | 0.983 | 1.07 | 1.19 | 0.853 | 1.02 | 1.06 | 0.864 | 0.871 | 0.929 | 0.939 | 0.911 |
| LU99A |  | 0.989 | 0.96 | 0.924 | 0.692 | 0.948 | 1.01 | 1.04 | 0.946 | 1.1 | 1.03 | 1.03 | 1.11 | 0.938 | 0.766 | 0.87 | 0.864 | 0.797 |
| NCI-H1437 | 1.04 | 1.03 | 1.08 | 0.968 | 0.987 | 0.974 | 1.07 | 1 | 0.99 | 1 | 1.06 | 1.04 | 1.02 | 1.04 | 1.21 | 1.32 | 1.25 | 1.28 |
| EKVX | 1.09 | 1.12 | 1.12 | 0.811 | 0.885 | 1.03 | 0.877 | 1.12 | 0.989 | 1.08 | 1.05 | 0.96 | 0.901 | 0.723 | 0.902 | 0.437 | 1.5 | 0.716 |
| IA-LM | 1.13 | 1.1 | 1.4 | 1.16 | 1.12 | 1 | 1.01 | 0.996 | 1.02 | 1.08 | 0.989 | 0.989 | 0.96 | 0.94 | 1.09 | 1.37 | 1.19 | 1.26 |
| ABC-1 | 0.767 | 1.07 | 0.918 | 0.579 | 0.901 | 0.975 | 0.817 | 1.07 | 1.02 | 1.03 | 0.995 | 0.882 | 1 | 0.957 | 1.04 | 1.1 | 1.46 | 1.35 |
| NCI-H520 | 1.14 | 1.12 | 0.999 | 1.03 | 1.15 | 0.899 | 0.816 | 0.988 | 1.03 | 1.09 | 0.981 | 1.03 | 0.919 | 0.907 | 0.613 | 0.722 | 0.811 | 0.545 |
| NCI-H1703 | 0.794 | 0.863 | 0.757 |  | 0.906 | 0.874 | 1.2 | 1.01 | 0.94 | 1.14 | 0.899 | 0.843 | 0.717 | 0.719 | 0.389 | 0.355 | 0.349 | 0.348 |
